# According to patent US8993593B2, “N-(4-(6-fluoro-3,4-dihydroisoquinolin-2(1H)-yl)-2,6-dimethylphenyl)-3,3-dimethylbutanamide as potassium channel modulators” (Valeant Pharmaceuticals International, priority 2006, dated 2015):
# Target: KCNQ1 (Homo sapiens, UniProt P51787)
# Assay: Two-electrode voltage-clamp in Xenopus laevis oocytes, KCNQ1
# Type: cell-based
# Parameters: KCNQ1 Block (%): dose or concentration left out as unconfirmed
# Procedure: Female Xenopus laevis extracted ovaries were purchased from eNASCO (LM00935MX, eNASCO Fort Atkinson, Wis.). […] Approximately 50 nl cRNA (about 50 ng) was injected for KCNQ1, KCNQ4, and KCNQ5 using a Nanoject microinjector (Drummond, Broomall, Pa., USA). For co-expression of KCNQ2 and KCNQ3 and of KCNQ1 and KCNE1, cRNA's were mixed in equal molar ratios before injection of approximately 50 nl. […] Oocytes were kept in Culture Barth solution at 19° C. which was changed daily and currents were recorded after 3 to 5 days.
# KCNQ channel currents expressed in Xenopus laevis oocytes were recorded using a two-electrode voltage-clamp. […] The oocytes were placed in custom built perfusion chambers connected to a continuous flow system and impaled with a current electrode and a voltage-clamp electrode pulled from borosilicate glass on a Flaming/Brown Micropipette Puller (Sutter Instruments Co, Novato, Calif., USA).
# All compounds were dissolved in DMSO to obtain concentrated stock solutions. On the day of electrophysiological experiments the stock solutions were thawed and diluted in recording solution to their final concentrations. The final DMSO concentration never exceeded 0.1%. Compound delivery was performed using a custom built multi-barrel apparatus connected to the flow system.
# Data were acquired by means of an Axograph X software (Axograph Scientific, Sydney, AU) and analyzed using Graph Pad Prism (GraphPad Software Inc., CA, USA). […]
# After steady channel current was recorded in the presence of Retigabine at its EC75, recorded oocyte was washed with the recording solution until its steady current returned to its normal level without the presence of any drugs. Then the channel steady current was recorded in the presence of the test compound at its EC75. The percent efficacy was then expressed as: % efficacy=(C2/C 1)×100 where C2 is the recorded steady current in the presence of follow-on compound at its EC75 and C1 is the recorded steady current in the presence of Retigabine at its EC75.
smiles,measurement,setting,value
"Cc1cc(N2CCc3cc(F)ccc3C2)cc(C)c1NC(=O)CC(C)(C)C [compound A, N-[4-(6-fluoro-3,4-dihydro-1H-isoquinolin-2-yl)-2,6-dimethylphenyl]-3,3-dimethyl butanamide]",KCNQ1 Block (%),oocyte expression,0%
same,effect on KCNQ1 (cardiac potential),"selectivity versus KCNQ2-5, in words",not affecting
